# From US20230278972A1, “SUBSTITUTED HALOALKYL SULFONANILIDE HERBICIDES” (FMC Corporation, priority 2020, published 2023)
# Tests used:
# Type in all cases: in vivo
# [1] = test system: Ryegrass, Italian (Italian ryegrass, Lolium multiflorum); assay: Test A preemergence, Ryegrass, Italian; details: Preemergence; for Ryegrass, Italian plant response rating: visual injury on 0 to 100 scale (0 no effect, 100 complete control), approximately 10 days; for Plant response rating, Ryegrass, Italian: 0 to 100 scale (0 no effect, 100 complete control)
# Procedure, shortened: (§1)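 Postemergence ratings come from foliar sprays onto one- to two-leaf plants of 2 to 10 cm grown in loam/sand; preemergence ratings come from a directed spray onto the soil of newly seeded pots. Formulation was a surfactant-containing non-phytotoxic solvent blend.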
# [2] = test system: Ryegrass, Italian (Italian ryegrass, Lolium multiflorum); assay: Test A postemergence, Ryegrass, Italian; details: Postemergence, 0 to 100 scale (0 no effect, 100 complete control); for Plant response rating, Ryegrass, Italian: 125 g ai/ha; for Ryegrass, Italian plant response rating: 500 g ai/ha, visual injury vs untreated controls after approx. 10 days
# Procedure, shortened: as §1
# [3] = test system: barnyardgrass (Echinochloa crus-galli); assay: Test A preemergence, barnyardgrass; details: Preemergence; for Barnyardgrass plant response rating: visual injury on 0 to 100 scale (0 no effect, 100 complete control), approximately 10 days; for Plant response rating, Barnyardgrass: 0 to 100 scale (0 no effect, 100 complete control)
# Procedure, shortened: as §1
# corn (Zea mays) = assay: Test A postemergence, corn; details: Postemergence, 0 to 100 scale (0 no effect, 100 complete control); for Plant response rating, Corn: 125 g ai/ha; for Corn plant response rating: 500 g ai/ha, visual injury vs untreated controls after approx. 10 days
# Procedure, shortened: as §1
# [4] = test system: ragweed (common ragweed, Ambrosia artemisiifolia); assay: Test A postemergence, ragweed; details: Postemergence, 0 to 100 scale (0 no effect, 100 complete control); for Plant response rating, Ragweed: 125 g ai/ha; for Ragweed plant response rating: 500 g ai/ha, visual injury vs untreated controls after approx. 10 days
# Procedure, shortened: as §1
# [5] = test system: blackgrass (Alopecurus myosuroides); assay: Test A postemergence, blackgrass; details: Postemergence, 0 to 100 scale (0 no effect, 100 complete control); for Plant response rating, Blackgrass: 125 g ai/ha; for Blackgrass plant response rating: 500 g ai/ha, visual injury vs untreated controls after approx. 10 days
# Procedure, shortened: as §1
# [6] = test system: wheat (Triticum aestivum); assay: Test A postemergence, wheat; details: Postemergence, 0 to 100 scale (0 no effect, 100 complete control); for Plant response rating, Wheat: 125 g ai/ha; for Wheat plant response rating: 500 g ai/ha, visual injury vs untreated controls after approx. 10 days
# Procedure, shortened: (§2)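 Barnyardgrass, wheat and galium were treated postemergence at the one- to two-leaf stage (2 to 10 cm) with chemicals formulated in non-phytotoxic solvent plus surfactant, grown in loam soil–sand pots. Pigweed was sown in the same blend and given a preemergence directed soil spray.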
# [7] = test system: pigweed (Amaranthus retroflexus); assay: Test A postemergence, pigweed; details: Postemergence, 0 to 100 scale (0 no effect, 100 complete control); for Plant response rating, Pigweed: 125 g ai/ha; for Pigweed plant response rating: 500 g ai/ha, visual injury vs untreated controls after approx. 10 days
# Procedure, shortened: as §1
# [8] = test system: Foxtail, Giant (giant foxtail, Setaria faberi); assay: Test A postemergence, Foxtail, Giant; details: Postemergence, 0 to 100 scale (0 no effect, 100 complete control); for Plant response rating, Foxtail, Giant: 125 g ai/ha; for Foxtail, Giant plant response rating: 500 g ai/ha, visual injury vs untreated controls after approx. 10 days
# Procedure, shortened: as §1
# kochia (Bassia scoparia) [9] = assay: Test A postemergence, kochia; details: Postemergence, 0 to 100 scale (0 no effect, 100 complete control); for Plant response rating, Kochia: 125 g ai/ha; for Kochia plant response rating: 500 g ai/ha, visual injury vs untreated controls after approx. 10 days
# Procedure, shortened: as §1
# [10] = test system: galium (catchweed bedstraw, Galium aparine); assay: Test A postemergence, galium; details: Postemergence, 0 to 100 scale (0 no effect, 100 complete control); for Plant response rating, Galium: 125 g ai/ha; for Galium plant response rating: 500 g ai/ha, visual injury vs untreated controls after approx. 10 days
# Procedure, shortened: as §2
# [11] = test system: barnyardgrass (Echinochloa crus-galli); assay: Test A postemergence, barnyardgrass; details: Postemergence, 0 to 100 scale (0 no effect, 100 complete control); for Plant response rating, Barnyardgrass: 125 g ai/ha; for Barnyardgrass plant response rating: 500 g ai/ha, visual injury vs untreated controls after approx. 10 days
# Procedure, shortened: as §2
# [12] = test system: Foxtail, Giant (giant foxtail, Setaria faberi); assay: Test A preemergence, Foxtail, Giant; details: Preemergence; for Foxtail, Giant plant response rating: visual injury on 0 to 100 scale (0 no effect, 100 complete control), approximately 10 days; for Plant response rating, Foxtail, Giant: 0 to 100 scale (0 no effect, 100 complete control)
# Procedure, shortened: as §1
# [13] = test system: ragweed (common ragweed, Ambrosia artemisiifolia); assay: Test A preemergence, ragweed; details: Preemergence; for Ragweed plant response rating: visual injury on 0 to 100 scale (0 no effect, 100 complete control), approximately 10 days; for Plant response rating, Ragweed: 0 to 100 scale (0 no effect, 100 complete control)
# Procedure, shortened: as §1
# kochia (Bassia scoparia) [14] = assay: Test A preemergence, kochia; details: Preemergence; for Kochia plant response rating: visual injury on 0 to 100 scale (0 no effect, 100 complete control), approximately 10 days; for Plant response rating, Kochia: 0 to 100 scale (0 no effect, 100 complete control)
# Procedure, shortened: as §1
# [15] = test system: pigweed (Amaranthus retroflexus); assay: Test A preemergence, pigweed; details: for Pigweed plant response rating: visual injury on 0 to 100 scale (0 no effect, 100 complete control), approximately 10 days; for Plant response rating, Pigweed: 0 to 100 scale (0 no effect, 100 complete control)
# Procedure, shortened: as §2
# [16] = 125 g ai/ha, visual injury, approx. 10 days
Compound,"Ryegrass, Italian plant response rating ([1]; 125 g ai/ha)","Plant response rating, Ryegrass, Italian ([1]; 500 g ai/ha)","Plant response rating, Ryegrass, Italian ([2]; visual injury approx. 10 days)","Ryegrass, Italian plant response rating [2]",Barnyardgrass plant response rating ([3]; 125 g ai/ha),"Plant response rating, Barnyardgrass ([3]; 500 g ai/ha)","Plant response rating, Corn (corn (Zea mays); visual injury approx. 10 days)",Corn plant response rating (corn (Zea mays)),Ragweed plant response rating [4],Blackgrass plant response rating [5],Wheat plant response rating [6],Pigweed plant response rating [7],"Foxtail, Giant plant response rating [8]",Kochia plant response rating (kochia (Bassia scoparia) [9]),Galium plant response rating [10],Barnyardgrass plant response rating [11],"Plant response rating, Foxtail, Giant ([12]; 500 g ai/ha)","Plant response rating, Ragweed ([13]; 500 g ai/ha)","Plant response rating, Kochia (kochia (Bassia scoparia) [14]; 500 g ai/ha)","Plant response rating, Pigweed ([15]; 500 g ai/ha)",also measured
COC1(OC)CCN(C(=O)c2cc(NS(=O)(=O)C(F)(F)F)c(C)cc2C)CC1 [Compound 101],80,100,60,70,100,100,20,30,70,20,60,90,80,30,90,90,100,80,90,90,"Plant response rating, Ragweed ([4]; visual injury approx. 10 days): 50; Plant response rating, Blackgrass ([5]; visual injury approx. 10 days): 20; Plant response rating, Wheat ([6]; visual injury approx. 10 days): 0; Plant response rating, Pigweed ([7]; visual injury approx. 10 days): 70; Plant response rating, Foxtail, Giant ([8]; visual injury approx. 10 days): 0; Plant response rating, Kochia (kochia (Bassia scoparia) [9]; visual injury approx. 10 days): 10; Plant response rating, Galium ([10]; visual injury approx. 10 days): 80; Plant response rating, Barnyardgrass ([11]; visual injury approx. 10 days): 80; Foxtail, Giant plant response rating ([12]; 125 g ai/ha): 90; Ragweed plant response rating ([13]; 125 g ai/ha): 60; Kochia plant response rating (kochia (Bassia scoparia) [14]; 125 g ai/ha): 60; Pigweed plant response rating ([15]; 125 g ai/ha): 90"
CC(=O)N(c1cc(C2=NOC3(CCCC3)C2)c(C)cc1C)S(=O)(=O)C(F)(F)F [Compound 220],,100,,20,,100,,30,40,30,60,70,50,60,80,70,100,60,70,100,"Plant response rating, Ryegrass, Italian [1, 16]: 100; Plant response rating, Ryegrass, Italian [2]: 0; Plant response rating, Barnyardgrass [3, 16]: 100; Plant response rating, Corn (corn (Zea mays)): 0; Plant response rating, Ragweed [4]: 0; Plant response rating, Blackgrass [5]: 0; Plant response rating, Wheat [6]: 20; Plant response rating, Pigweed [7]: 0; Plant response rating, Foxtail, Giant [8]: 0; Plant response rating, Kochia (kochia (Bassia scoparia) [9]): 20; Plant response rating, Galium [10]: 60; Plant response rating, Barnyardgrass [11]: 20; Plant response rating, Foxtail, Giant [12, 16]: 100; Plant response rating, Ragweed [13, 16]: 30; Plant response rating, Kochia (kochia (Bassia scoparia) [14]; [16]): 20; Plant response rating, Pigweed [15, 16]: 70"
COC1CCCN(C(=O)c2cc(N(S(=O)(=O)C(F)(F)F)S(=O)(=O)C(F)(F)F)c(C)cc2C)C1 (stereo not drawn) [Compound 119],80,100,20,90,100,100,10,30,90,40,70,70,80,60,90,90,100,100,100,100,"Plant response rating, Ragweed ([4]; visual injury approx. 10 days): 70; Plant response rating, Blackgrass ([5]; visual injury approx. 10 days): 0; Plant response rating, Wheat ([6]; visual injury approx. 10 days): 10; Plant response rating, Pigweed ([7]; visual injury approx. 10 days): 40; Plant response rating, Foxtail, Giant ([8]; visual injury approx. 10 days): 30; Plant response rating, Kochia (kochia (Bassia scoparia) [9]; visual injury approx. 10 days): 20; Plant response rating, Galium ([10]; visual injury approx. 10 days): 80; Plant response rating, Barnyardgrass ([11]; visual injury approx. 10 days): 40; Foxtail, Giant plant response rating ([12]; 125 g ai/ha): 100; Ragweed plant response rating ([13]; 125 g ai/ha): 80; Kochia plant response rating (kochia (Bassia scoparia) [14]; 125 g ai/ha): 50; Pigweed plant response rating ([15]; 125 g ai/ha): 100"
